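Each compound was tested at five concentrations against cells in 96-well plates for 48 hours. GI50 is the concentration that inhibits growth by half.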 Calls of active or inactive are those of the source. Cut-off read from the data, not from the text of the source: active = GI50 up to about 1.1 µM and inactive = higher. Where a SMILES comes first, the peptide text is derived from it. The star is where a group is joined. Boc = CC(C)(C)OC(=O)*
Assays:
Assay in all cases: NCI anticancer screen, dose series, 48 h
SK-MEL-5 = test system: SK-MEL-5
SK-MEL-28 = test system: SK-MEL-28
SR = test system: SR
DU-145 = test system: DU-145
SW-620 = test system: SW-620
RPMI-8226 = test system: RPMI-8226
MOLT-4 = test system: MOLT-4
OVCAR-3 = test system: OVCAR-3
NCI-H23 = test system: NCI-H23
COLO 205 = test system: COLO 205
HT-29 = test system: HT-29
EKVX = test system: EKVX
NCI-H226 = test system: NCI-H226
NCI-H460 = test system: NCI-H460
UACC-62 = test system: UACC-62
SNB-75 = test system: SNB-75
HCT-116 = test system: HCT-116
A549 = test system: A549
KM12 = test system: KM12
SF-539 = test system: SF-539

Row | SMILES | GI50 (SK-MEL-5) | GI50 (SK-MEL-28) | GI50 (SR) | GI50 (DU-145) | GI50 (SW-620) | GI50 (RPMI-8226) | GI50 (MOLT-4) | GI50 (OVCAR-3) | GI50 (NCI-H23) | GI50 (COLO 205) | GI50 (HT-29) | GI50 (EKVX) | GI50 (NCI-H226) | GI50 (NCI-H460) | GI50 (UACC-62) | GI50 (SNB-75) | GI50 (HCT-116) | GI50 (A549) | GI50 (KM12) | GI50 (SF-539)
1 | O=S(=O)(NC(c1ccccc1)(c1cc2ccccc2[nH]1)c1cc2ccccc2n1S(=O)(=O)c1ccccc1)c1ccccc1 (stereo not drawn) | > 100 µM (inactive) | > 100 µM (inactive) | > 100 µM (inactive) | > 100 µM (inactive) | > 100 µM (inactive) | 52.1 µM (inactive) | > 100 µM (inactive) | 91.8 µM (inactive) | > 100 µM (inactive) | > 100 µM (inactive) | > 100 µM (inactive) | > 100 µM (inactive) | > 100 µM (inactive) | > 100 µM (inactive) | > 100 µM (inactive) | > 100 µM (inactive) | > 100 µM (inactive) | 48.3 µM (inactive) | > 100 µM (inactive) | –
2 | CC(=O)OCC1OC(O[C@@H]2c3c(O)c4c(c(O)c3C3=C(NN(c5ccc([N+](=O)[O-])cc5[N+](=O)[O-])[Se]3=O)[C@@]2(C)O)C(=O)c2ccccc2C4=O)C(OC(C)=O)C(OC(C)=O)C1OC(C)=O (stereo partly drawn) | 0.2 µM (active) | 0.242 µM (active) | 0.179 µM (active) | 0.365 µM (active) | 0.101 µM (active) | 0.16 µM (active) | 0.0345 µM (active) | 0.158 µM (active) | 0.251 µM (active) | 0.175 µM (active) | 0.239 µM (active) | 0.23 µM (active) | 0.31 µM (active) | 0.192 µM (active) | 0.27 µM (active) | 0.394 µM (active) | 0.141 µM (active) | 0.314 µM (active) | 0.338 µM (active) | –
3 | COC(=O)C(Cc1c[nH]c2ccccc12)NC(=O)C(Cc1c[nH]c2ccccc12)NC(=O)C(Cc1c[nH]c2ccccc12)NC(=O)C(Cc1c[nH]c2ccccc12)NC(=O)C(Cc1c[nH]c2ccccc12)NC(=O)C(Cc1c[nH]c2ccccc12)NC(=O)C(Cc1c[nH]c2ccccc12)NC(=O)C(Cc1c[nH]c2ccccc12)NC(=O)OC(C)(C)C (stereo not drawn) (Boc-WWWWWWWW-OMe; configuration not given here) | 24.3 µM (inactive) | 33.3 µM (inactive) | 59.7 µM (inactive) | 35.5 µM (inactive) | > 100 µM (inactive) | 57.9 µM (inactive) | 44.5 µM (inactive) | 83.6 µM (inactive) | 29 µM (inactive) | – | > 100 µM (inactive) | – | 49.3 µM (inactive) | 67.6 µM (inactive) | 28.5 µM (inactive) | > 100 µM (inactive) | 15.3 µM (inactive) | 86.5 µM (inactive) | – | –
4 | COc1cc(C(c2cccc3ccccc23)N2C(=O)CCC2C(=O)NCc2ccccc2)cc(OC)c1OC (stereo not drawn) | > 100 µM (inactive) | > 100 µM (inactive) | > 100 µM (inactive) | > 100 µM (inactive) | > 100 µM (inactive) | 55.3 µM (inactive) | 78 µM (inactive) | > 100 µM (inactive) | > 100 µM (inactive) | > 100 µM (inactive) | > 100 µM (inactive) | > 100 µM (inactive) | > 100 µM (inactive) | > 100 µM (inactive) | 64.6 µM (inactive) | – | > 100 µM (inactive) | > 100 µM (inactive) | > 100 µM (inactive) | > 100 µM (inactive)
5 | C[C@@H]1S[C@H](c2c(F)cccc2Cl)n2c1nc1ccccc12 | – | 13.7 µM (inactive) | 7.23 µM (inactive) | 27.2 µM (inactive) | 13.7 µM (inactive) | 4.44 µM (inactive) | 5.04 µM (inactive) | 14.9 µM (inactive) | 14.5 µM (inactive) | 11.2 µM (inactive) | 14.7 µM (inactive) | 22.1 µM (inactive) | 19.9 µM (inactive) | – | 8.81 µM (inactive) | 16.5 µM (inactive) | 4.49 µM (inactive) | 17.1 µM (inactive) | 5.53 µM (inactive) | 15 µM (inactive)
6 | CC12CC3(O)OC(O1)C1(COC(=O)c4ccccc4)C3CC21OC1OC(CO)C(O)C(O)C1O (stereo not drawn) | > 100 µM (inactive) | > 100 µM (inactive) | > 100 µM (inactive) | > 100 µM (inactive) | > 100 µM (inactive) | > 100 µM (inactive) | > 100 µM (inactive) | > 100 µM (inactive) | > 100 µM (inactive) | > 100 µM (inactive) | > 100 µM (inactive) | > 100 µM (inactive) | > 100 µM (inactive) | > 100 µM (inactive) | > 100 µM (inactive) | – | > 100 µM (inactive) | > 100 µM (inactive) | > 100 µM (inactive) | > 100 µM (inactive)
7 | Cc1nn(C(=O)Cc2ccccc2)c2c1C(c1ccccc1[N+](=O)[O-])SC(=N)N2 (stereo not drawn) | > 100 µM (inactive) | > 100 µM (inactive) | > 100 µM (inactive) | > 100 µM (inactive) | > 100 µM (inactive) | > 100 µM (inactive) | > 100 µM (inactive) | – | > 100 µM (inactive) | > 100 µM (inactive) | > 100 µM (inactive) | > 100 µM (inactive) | > 100 µM (inactive) | > 100 µM (inactive) | > 100 µM (inactive) | 83.4 µM (inactive) | > 100 µM (inactive) | > 100 µM (inactive) | > 100 µM (inactive) | > 100 µM (inactive)
8 | O=C1CCc2cc3c(cc21)C(C(=O)O)CC3 (stereo not drawn) | > 100 µM (inactive) | > 100 µM (inactive) | > 100 µM (inactive) | > 100 µM (inactive) | > 100 µM (inactive) | > 100 µM (inactive) | > 100 µM (inactive) | – | > 100 µM (inactive) | > 100 µM (inactive) | > 100 µM (inactive) | > 100 µM (inactive) | > 100 µM (inactive) | > 100 µM (inactive) | > 100 µM (inactive) | 87.5 µM (inactive) | > 100 µM (inactive) | > 100 µM (inactive) | > 100 µM (inactive) | > 100 µM (inactive)
9 | CCOC(=O)c1c(NC(=O)c2ccccc2)c(C#N)c2n1CCCCC2 | > 100 µM (inactive) | > 100 µM (inactive) | > 100 µM (inactive) | > 100 µM (inactive) | – | > 100 µM (inactive) | > 100 µM (inactive) | – | > 100 µM (inactive) | > 100 µM (inactive) | > 100 µM (inactive) | > 100 µM (inactive) | > 100 µM (inactive) | > 100 µM (inactive) | > 100 µM (inactive) | > 100 µM (inactive) | > 100 µM (inactive) | > 100 µM (inactive) | > 100 µM (inactive) | –
10 | C=CCOCn1ccc(N)nc1=O | > 100 µM (inactive) | > 100 µM (inactive) | > 100 µM (inactive) | > 100 µM (inactive) | > 100 µM (inactive) | > 100 µM (inactive) | > 100 µM (inactive) | – | > 100 µM (inactive) | > 100 µM (inactive) | > 100 µM (inactive) | > 100 µM (inactive) | > 100 µM (inactive) | – | > 100 µM (inactive) | > 100 µM (inactive) | > 100 µM (inactive) | > 100 µM (inactive) | > 100 µM (inactive) | > 100 µM (inactive)
